In data set [1] the test system is Ba/F3 ALK-C1156Y. Put plainly: Growth of transfected Ba/F3 cells (CellTiter-Glo, 3 days). Format: cell-based. The note with it: Mus musculus, BaF3; ALK-C1156Y; read-out: IC50. The method in brief:
(§1)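 Log-phase cells were seeded and left overnight at 37℃, 5% CO2 before compound addition in triplicate (final DMSO 0.1% v/v). After culture, luminescence was read and IC50 obtained by nonlinear sigmoidal dose-response fitting.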

Data set [2] deals with Ba/F3 ALK-F1174C. The description is as above. The note with it: Mus musculus, BaF3, ALK-F1174C, read-out: IC50. Format: cell-based. The method in brief: as §1
For data set [3], the system named is Ba/F3 ALK-F1174L. The description is as above. Type of data set: cell-based. The note with it: Mus musculus, BaF3; ALK-F1174L; read-out: IC50. In outline:
as §1

Data set [4] has as its system Ba/F3 ALK-F1174V. The description is as above. Type of data set: cell-based. The note with it: Mus musculus, BaF3; ALK-F1174V; read-out: IC50. In outline: as §1
The test system of data set [5] is Ba/F3 ALK-G1202R. The data set is described as above. Type of data set: cell-based. The note with it: Mus musculus, BaF3; ALK-G1202R; read-out: IC50. In outline: as §1
The subject of data set [6] is Ba/F3 ALK-G1202del. The description is as above. Format: cell-based. The note with it: Mus musculus, BaF3; ALK-G1202del; read-out: IC50. In outline:
as §1

In data set [7] the test system is Ba/F3 ALK-I1171S. The description is as above. Type of data set: cell-based. The note with it: Mus musculus, BaF3, ALK-I1171S, read-out: IC50. In outline:
as §1

Data set [8] concerns Ba/F3 ALK-L1152P. The data set is described as above. Type of data set: cell-based. The note with it: Mus musculus, BaF3; ALK-L1152P; read-out: IC50. In outline:
as §1

Data set [9] has as its system Ba/F3 ALK-L1196M. The data set is described as above. Type of data set: cell-based. The note with it: Mus musculus, BaF3; ALK-L1196M; read-out: IC50. In outline: as §1
Data set [10] relates to Ba/F3 ALK-T1151Tins. The data set is described as above. The note with it: Mus musculus, BaF3; ALK-T1151Tins; read-out: IC50. Type of data set: cell-based. In outline:
as §1

Data set [11] deals with Ba/F3 ALK-V1180L. Described as above. Type of data set: cell-based. The note with it: Mus musculus, BaF3; ALK-V1180L; read-out: IC50. In outline:
as §1

Data set [12] has as its system Ba/F3 ALK-WT. The description is as above. Type of data set: cell-based. The note with it: Mus musculus, BaF3; ALK-WT; read-out: IC50. The method in brief: as §1
The nature of data set [13]: Single-dose toxicity study (acute toxicity).

This is an account of results in publication PMC8795197, “Safety and activity of WX-0593 (Iruplinalkib) in patients with ALK- or ROS1-rearranged advanced non-small cell lung cancer: a phase 1 dose-escalation and dose-expansion trial” (Signal Transduction and Targeted Therapy, 2022).

As a reminder, the IC50 is the concentration needed to halve the response being measured.

Like-named read-outs stand apart in the source and are kept apart here.

As to `COc1cc(N2CCC3(CCN(C)CC3)CC2)ccc1Nc1ncc(Cl)c(Nc2ccccc2P(C)(C)=O)n1` [WX-0593], the IC50 in data set [1] was determined as 9 nM; in [2] (first listing (r10)), 36 nM; in data set [2] (second listing (r15)), 29.3 nM; in data set [3] it was 36 nM; in data set [4], 22.3 nM; in data set [5] it was 96 nM. For the same molecule, the IC50 in data set [6] turned out to be 930 nM; in data set [7] (first listing (r12)), 32 nM; in data set [7] (second listing (r19)), 21.4 nM; in data set [8], 1.5 nM; in [9] it was 36 nM; in data set [10], 12 nM. Also, the IC50 in data set [11] stood at 8.4 nM; in [12], 21 nM. The “MTD as multiple of the effective dose” value in [13] (female animals) is recorded as 10 times; in data set [13] (males), 40 times.
